Among the data in US20110183980A1, “O-BENZYL NICOTINAMIDE ANALOGS AS MGLUR5 POSITIVE ALLOSTERIC MODULATORS” (priority 2009, published 2011) are EC50 and Glu max values, retold here.

Like-named read-outs stand apart in the source and are kept apart here.

This experiment deals with T1, rat mGluR5 (Rattus norvegicus, UniProt P31424).
T1 construct: expressed in transfected cells; host or cells: human embryonic kidney (HEK) cells
Nature of the experiment: Potentiation of glutamate response, Ca2+ fluorescence (FDSS) in HEK cells transfected with rat mGluR5. The format is cell-based. The method, then: Human embryonic kidney (HEK) cells transfected with rat mGluR5 were plated in clear bottom assay plates for assay in a Functional Drug Screening System (FDSS). The cells were loaded with a Ca^2+-sensitive fluorescent dye (e.g., Fluo-4), and the plates were washed and placed in the FDSS instrument. After establishment of a fluorescence baseline for twelve seconds, the compounds of the present invention were added to the cells, and the response in cells was measured. Five minutes later, an mGluR5 agonist (e.g., glutamate, 3,5-dihydroxyphenylglycine, or quisqualate) was added to the cells, and the response of the cells was measured. Potentiation of the agonist response of mGluR5 by the compounds in the present invention was observed as an increase in response to non-maximal concentrations of agonist (here, glutamate) in the presence of compound compared to the response to agonist in the absence of compound.
The above described assay operated in two modes. In the first mode, a range of concentrations of the present compounds were added to cells, followed by a single fixed concentration of agonist. If a compound acted as a potentiator, an EC50 value for potentiation and a maximum extent of potentiation by the compound at this concentration of agonist was determined by non-linear curve fitting. In the second mode, several fixed concentrations of the present compounds were added to various wells on a plate, followed by a range of concentrations of agonist for each concentration of present compound; the EC50 values for the agonist at each concentration of compound were determined by non-linear curve fitting. A decrease in the EC50 value of the agonist with increasing concentrations of the present compounds (a leftward shift of the agonist concentration-response curve) is an indication of the degree of mGluR5 potentiation at a given concentration of the present compound. An increase in the EC50 value of the agonist with increasing concentrations of the present compounds (a rightward shift of the agonist concentration-response curve) is an indication of the degree of mGluR5 antagonism at a given concentration of the present compound. The second mode also indicates whether the present compounds also affect the maximum response to mGluR5 to agonists.

[1] abbreviates: Table 1, potentiation of mGluR5 response to glutamate, read-out: EC50.
Setting [2] is: Table 2, potentiation of mGluR5 response to glutamate, read-out: EC50.

T1 sequence (P31424 21-1203): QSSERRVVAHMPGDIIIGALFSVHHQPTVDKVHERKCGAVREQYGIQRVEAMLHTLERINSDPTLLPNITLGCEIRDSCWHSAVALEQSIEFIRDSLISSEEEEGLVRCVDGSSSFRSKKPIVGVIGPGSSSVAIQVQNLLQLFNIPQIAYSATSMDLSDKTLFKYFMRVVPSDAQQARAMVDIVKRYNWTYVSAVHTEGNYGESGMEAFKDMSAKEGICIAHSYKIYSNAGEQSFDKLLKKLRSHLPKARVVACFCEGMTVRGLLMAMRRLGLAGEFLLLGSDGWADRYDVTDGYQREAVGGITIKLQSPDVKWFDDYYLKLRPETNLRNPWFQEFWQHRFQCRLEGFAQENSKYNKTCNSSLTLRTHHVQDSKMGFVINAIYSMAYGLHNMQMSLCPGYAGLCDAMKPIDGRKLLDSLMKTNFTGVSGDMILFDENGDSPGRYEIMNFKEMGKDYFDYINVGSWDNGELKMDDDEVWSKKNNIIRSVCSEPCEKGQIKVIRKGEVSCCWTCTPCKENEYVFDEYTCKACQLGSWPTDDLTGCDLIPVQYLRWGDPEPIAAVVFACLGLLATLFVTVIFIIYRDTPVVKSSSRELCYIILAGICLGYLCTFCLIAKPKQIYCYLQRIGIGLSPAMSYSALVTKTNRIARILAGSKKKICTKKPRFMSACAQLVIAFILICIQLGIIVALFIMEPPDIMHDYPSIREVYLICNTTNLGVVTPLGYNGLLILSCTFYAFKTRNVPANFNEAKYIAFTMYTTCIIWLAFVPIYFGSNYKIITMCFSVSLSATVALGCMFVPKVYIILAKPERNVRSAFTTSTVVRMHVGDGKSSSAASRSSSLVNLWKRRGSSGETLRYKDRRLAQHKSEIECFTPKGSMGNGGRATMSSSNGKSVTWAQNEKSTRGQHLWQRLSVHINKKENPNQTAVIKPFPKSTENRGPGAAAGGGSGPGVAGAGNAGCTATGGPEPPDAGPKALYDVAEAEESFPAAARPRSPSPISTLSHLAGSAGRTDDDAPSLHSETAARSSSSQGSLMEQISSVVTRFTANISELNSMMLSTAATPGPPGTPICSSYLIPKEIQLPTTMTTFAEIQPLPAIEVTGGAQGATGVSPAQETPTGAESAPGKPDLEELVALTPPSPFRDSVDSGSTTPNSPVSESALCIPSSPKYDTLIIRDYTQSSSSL

`CC(C)(C)CCNC(=O)c1ccc(OCc2ccccc2)nc1` [Example 1.2a.8]: the concentration for a half-maximal effect (EC50) (commonly the concentration at which the effect is half-maximal) under setting [1] amounted to 92 nM.

`Cc1cc(C(=O)NCCC(C)(C)C)cnc1OCc1ccncc1`: the EC50 under setting [2] amounted to 5300 nM. Still for that read-out and setting: the same measure for `C[C@@H](NC(=O)c1ccc(OCc2ccncc2)nc1)C(C)(C)C`: 570 nM; for `CC(C)(C)CC(C)(C)NC(=O)c1ccc(OCc2cccc(F)c2)nc1`: 1100 nM. For the compound `O=C(Nc1ccccn1)c1ccc(OCc2ccc(F)cc2)nc1` [Example 1.2d.1], under setting [1], the EC50 is 1300 nM. Still for that read-out and setting: the same measure for `O=C(Nc1ccc(F)cn1)c1ccc(OCc2ccccc2)nc1` [Example 1.2a.11]: 280 nM. As for `C[C@H](NC(=O)c1ccc(OCc2ccccc2)nc1)C1CCCCC1` [(S)-6-(benzyloxy)-N-(1-cyclohexylethyl)nicotinamide], under “read-out: EC50 as an mGluR5 potentiator”, the concentration for a half-maximal effect (EC50) was over 10000 nM. For the compound `O=C(Nc1cccc(F)c1)c1ccc(OCc2ccccc2)nc1` [Example 1.2a.16], under setting [1], the concentration giving a half-maximal response (EC50) is 530 nM.

Take `COc1nc(OCc2cccc(F)c2)ccc1C(=O)N[C@H](C)C1CCCCC1`: the EC50 under setting [2] is over 10000 nM. `C[C@@H](NC(=O)c1ccc(OCc2ccccc2)nc1)C1CCCCC1` [Example 1.2a.2, (R)-6-(Benzyloxy)-N-(1-cyclohexylethyl)nicotinamide]: the Glu max (mGluR5 expressing cell line) came to 91%. Also, where the note is “mGluR5 expressing cell line, potentiation, read-out: EC50”, the concentration for a half-maximal effect (EC50) stood at 40 nM. Take `CC(C)(C)CCNC(=O)c1ccc(OCc2ccncc2)nc1` [Example 2.3c.2]: the 50% effective concentration (EC50) under setting [1] is 420 nM.

For `Cc1nc(OCc2cccc(F)c2)ccc1C(=O)N[C@H](C)C1CCCCC1` [Example 1.2m.2], under setting [1], the EC50 turned out to be 870 nM. Turning to `C[C@@H](NC(=O)c1cnc(OCc2cccc(F)c2)cc1C(F)(F)F)C(C)(C)C`, the EC50 under setting [2] was found to be 1200 nM.

Regarding `O=C(Nc1ccc(Cl)cc1F)c1ccc(OCc2cccc(F)c2)nc1` [Example 1.2c.12], under setting [1], the EC50 was 570 nM.

For `C[C@@H](NC(=O)c1ccc(OCc2cccc(F)c2)[nH]c1=O)C(C)(C)C`, the concentration for a half-maximal effect (EC50) under setting [2] was over 10000 nM. Turning to `Cc1nc(OCc2ccncc2)ccc1C(=O)N[C@H](C)C1CCCCC1` [Example 1.2n.2], the concentration giving a half-maximal response (EC50) under setting [1] worked out at 800 nM. The same measure, in the same setting: the same measure for `CC(C)NC(=O)c1ccc(OCc2cccc(F)c2)nc1` [Example 1.2c.4]: 1000 nM; for `CC(C)(C)CCNC(=O)c1ccc(OCc2cc(F)cc(F)c2)nc1` [Example 1.2e.1]: 1100 nM. Consider `C[C@@H](NC(=O)c1ccc(OCc2cccc(F)c2)nc1Cl)C(C)(C)C`, for which the 50% effective concentration (EC50) under setting [2] was determined as 370 nM. For the compound `O=C(Nc1ccc(F)cc1)c1ccc(OCc2cccc(F)c2)nc1` [Example 1.2c.11], the EC50 under setting [1] amounted to 260 nM. Regarding `O=C(NC1CCCCC1)c1ccc(OCc2cccc(F)c2)nc1` [Example 1.2c.6], the EC50 under setting [1] turned out to be 40 nM. On the same count and under the same terms, in the case of `C[C@@H](NC(=O)c1ccc(OCc2ccncc2)nc1)C1CC1` [Example 1.2i.5] it was 4800 nM. Consider `O=C(NC1CC(O)(C(F)(F)F)C1)c1ccc(OCc2cccc(F)c2)nc1` (stereo not shown), for which the concentration for a half-maximal effect (EC50) under setting [2] stood at 1800 nM.

In the case of `C[C@@H](NC(=O)c1ccc(OCc2cccc(F)c2)nc1)C1CC1` [Example 1.2c.15], the EC50 under setting [1] stood at 94 nM. Still for that read-out and setting: the same measure for `O=C(c1ccc(OCc2cccc(F)c2)nc1)N1CCOCC1` [Example 1.2c.7]: 1700 nM; for `CCCCOc1ccc(C(=O)N[C@H](C)C2CCCCC2)cn1` [Example 1.2j.6]: 1500 nM; for `CC(C)(C)CCNC(=O)c1ccc(OCc2cccc(F)c2)nc1` [Example 1.2c.3]: 85 nM. As to `COC[C@@H](NC(=O)c1ccc(OCc2cccc(F)c2)nc1)C(C)(C)C`, the concentration for a half-maximal effect (EC50) under setting [2] is 1900 nM. As for `O=C(N[C@H]1CCCC[C@@H]1O)c1ccc(OCc2ccccc2)nc1`, under setting [2], the EC50 was 2800 nM.

Turning to `CC(C)(C)NC(=O)c1ccc(OCc2cccc(F)c2)nc1` [Example 1.2c.5], under setting [1], the concentration giving a half-maximal response (EC50) was determined as 400 nM. Take `Cc1cc(OCc2cccc(F)c2)ncc1C(=O)Nc1ccc(F)cc1F`: the 50% effective concentration (EC50) under setting [2] stood at 920 nM. Still for that read-out and setting: the same measure for `C[C@@H](NC(=O)c1ccc(OCc2cccc(F)c2)nc1)C1CCOCC1`: 310 nM; for `C[C@@H](NC(=O)c1ccc(OCc2cccc(F)c2)nc1)C(C)(C)O`: 150 nM.
